In patent publication EP4603105A1, “PHARMACEUTICAL COMPOSITION CONTAINING CYCLIC COMPOUND HAVING SELECTIVE KRAS INHIBITORY EFFECT AGAINST HRAS AND NRAS” (CHUGAI SEIYAKU KABUSHIKI KAISHA, priority 2022, dated 2024):
Where a SMILES comes first, the peptide text is derived from it. Bridges are numbered along the chain shown (N, C = ends). [ ]: non-standard residue; d: D form. The star is where a group is joined. hPhe(3-Cl-4-CF3) = N[C@@H](CCc1ccc(C(F)(F)F)c(Cl)c1)C(=O)O; NPrPhe(4-CF3) = CCCN[C@@H](Cc1ccc(C(F)(F)F)cc1)C(=O)O; NMeGly(cPent) = CN[C@H](C(=O)O)C1CCCC1; NMeD = CN[C@@H](CC(=O)O)C(=O)O; NMeL = CN[C@@H](CC(C)C)C(=O)O; NMeAbu = CC[C@H](NC)C(=O)O; Morpholide = C1CN(*)CCO1; NMeA = CN[C@@H](C)C(=O)O; Ac4c = NC1(C(=O)O)CCC1; Sar = CNCC(=O)O

Columns and labels:
[1] = target: HRAS wild-type protein (Homo sapiens, UniProt P01112); assay: Binding to HRAS by surface plasmon resonance (SPR), KD and KD ratio to KRAS; conditions: ratio of the KD value with respect to HRAS wild-type protein to the KD value with respect to KRAS
In short: (§1)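 Each cycle, GDP-bound biotin-Avi RAS was captured (~100–300 RU), compound concentrations were injected low to high for 75 s each at 100 µL/min, then the chip was regenerated. Buffer: HBS pH 7.4, 10 mM MgCl2, 10 µM GDP, 1 mM DTT, 4% DMSO; 30°C. KD from a 1:1 binding model.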

[2] = tested on: human lung cancer strain NCI-H441; type: cell-based
In short: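 Signal came from […] measured per well once the reagent was added. Beforehand, cells were cultured at 37°C and 5% carbon dioxide on a compound series serially diluted in dimethyl sulfoxide.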

[3] = target: GDP-bound NRAS wild-type protein (Homo sapiens, UniProt P01111); assay: Binding to NRAS by surface plasmon resonance (SPR), KD and KD ratio to KRAS; conditions: ratio of the KD value with respect to GDP-bound NRAS wild-type protein to the KD value with respect to KRAS
In short: as §1

Sequence of GDP-bound NRAS wild-type protein (P01111 whole entry): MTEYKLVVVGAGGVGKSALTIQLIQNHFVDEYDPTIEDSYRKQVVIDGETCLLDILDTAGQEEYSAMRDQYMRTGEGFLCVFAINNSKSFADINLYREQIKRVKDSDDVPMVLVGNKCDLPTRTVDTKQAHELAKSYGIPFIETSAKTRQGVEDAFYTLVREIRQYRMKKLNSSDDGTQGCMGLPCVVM
Sequence of HRAS wild-type protein (P01112 whole entry): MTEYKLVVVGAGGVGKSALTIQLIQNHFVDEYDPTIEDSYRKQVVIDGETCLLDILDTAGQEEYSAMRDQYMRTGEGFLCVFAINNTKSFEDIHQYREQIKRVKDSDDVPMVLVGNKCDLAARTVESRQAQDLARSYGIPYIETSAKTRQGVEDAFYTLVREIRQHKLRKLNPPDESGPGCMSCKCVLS

| SMILES | HRAS /KRAS [1] | IC50 [2] | NRAS /KRAS [3] |
| --- | --- | --- | --- |
| CC[C@H](C)[C@@H]1NC(=O)[C@H](CC(F)F)N(C)C(=O)C[C@@H](C(=O)N(C)CC)N(C)C(=O)[C@H](C2CCCC2)N(C)C(=O)C2(CC(C)(C)C2)NC(=O)[C@@H]2C[C@H](C)CN2C(=O)[C@H](CCc2ccc(C(F)(F)F)c(Cl)c2)NC(=O)CN(C)C(=O)[C@H](Cc2ccc(C)cc2)N2CC/C=C\C[C@@H](C2=O)N(C)C(=O)CN(C)C1=O [PP1911] | A (a compound having 10 or more and less than 20 is denoted as A) | 11.7 nM | A (a compound having 10 or more and less than 20 is denoted as A) |
| CCO[C@@H]1C[C@H]2C(=O)NC3(CC(C)(C)C3)C(=O)N(CC)[C@@H](C3CCCC3)C(=O)N(C)[C@H](C(=O)N(C)C)CC(=O)N(C)[C@@H](CC)C(=O)N[C@@H]([C@@H](C)CC)C(=O)N(C)CC(=O)N(C)[C@H]3C/C=C\CCN(C3=O)[C@@H](Cc3ccc(C(F)(F)F)cc3)C(=O)N(C)CC(=O)N[C@@H](CCc3cc(F)c(C(F)(F)F)c(F)c3)C(=O)N2C1 [PP1913] | A (a compound having 10 or more and less than 20 is denoted as A) | 44 nM | A (a compound having 10 or more and less than 20 is denoted as A) |
| CCO[C@@H]1C[C@H]2C(=O)NC3(CC(C)(C)C3)C(=O)N(C)[C@@H](C3CCCC3)C(=O)N(C)[C@H](C(=O)N(C)C)CC(=O)N3CCCCC[C@H]3C(=O)N[C@@H]([C@@H](C)CC)C(=O)N(C)CC(=O)N(C)[C@H]3C/C=C\CCN(C3=O)[C@@H](Cc3ccc(C(F)(F)F)cc3)C(=O)N(C)CC(=O)N[C@@H](CCc3cc(F)c(C(F)(F)F)c(F)c3)C(=O)N2C1 [PP1915] | A (a compound having 10 or more and less than 20 is denoted as A) | 18.5 nM | A (a compound having 10 or more and less than 20 is denoted as A) |
| CCCN1C(=O)CN(C)C(=O)CN(C)C(=O)[C@H]([C@@H](C)CC)NC(=O)[C@H](CC(C)C)N(C)C(=O)C[C@@H](C(=O)N2CCOCC2)N(C)C(=O)[C@H](C2CCCC2)N(C)C(=O)C2(CCC2)NC(=O)[C@H](C)N(C)C(=O)[C@H](CCc2ccc(C(F)(F)F)c(Cl)c2)NC(=O)CN(C)C(=O)[C@@H]1Cc1ccc(C(F)(F)F)cc1 [PP1916] ([NMeL]I[Sar][Sar][NPrPhe(4-CF3)][Sar][hPhe(3-Cl-4-CF3)][NMeA][Ac4c][NMeGly(cPent)][NMeD]-Morpholide; lactam N-11) | C (A compound having a KD ratio of 0.1 or more and less than 3 is denoted as C) | 16.8 nM | B (a compound having 3 or more and less than 10 is denoted as B) |
| CCCN(C)C(=O)[C@@H]1CC(=O)N(C)[C@@H](CC(C)C)C(=O)N[C@@H]([C@@H](C)OC)C(=O)N(C)CC(=O)N(C)[C@H]2C/C=C\CCN(C2=O)[C@@H](Cc2ccc(C(F)(F)F)cc2)C(=O)N(C)CC(=O)N[C@@H](CCc2cc(F)c(C(F)(F)F)c(F)c2)C(=O)N2C[C@H](OCC)C[C@H]2C(=O)NC2(CC(C)(C)C2)C(=O)N(C)[C@@H](C2CCCC2)C(=O)N1C [PP1917] | A (a compound having 10 or more and less than 20 is denoted as A) | 22.5 nM | A (a compound having 10 or more and less than 20 is denoted as A) |
| CCCN1C(=O)CN(C)C(=O)CN(C)C(=O)[C@H]([C@@H](C)CC)NC(=O)[C@H](CC(C)C)N(C)C(=O)C[C@@H](C(=O)N2CCOCC2)N(C)C(=O)[C@H](C2CCCC2)N(C)C(=O)C2(CCC2)NC(=O)[C@H](CC)N(C)C(=O)[C@H](CCc2ccc(C(F)(F)F)c(Cl)c2)NC(=O)CN(C)C(=O)[C@@H]1Cc1ccc(C(F)(F)F)cc1 [PP1918] ([NMeL]I[Sar][Sar][NPrPhe(4-CF3)][Sar][hPhe(3-Cl-4-CF3)][NMeAbu][Ac4c][NMeGly(cPent)][NMeD]-Morpholide; lactam N-11) | C (A compound having a KD ratio of 0.1 or more and less than 3 is denoted as C) | 32.8 nM | B (a compound having 3 or more and less than 10 is denoted as B) |
